Data: patent US20230081426A1, “COMPOUNDS AND METHODS FOR KRAS MODULATION AND INDICATIONS THEREFOR” (Plexxikon Inc., priority 2020, published 2023)
Read-outs that look alike come from different tables or passages of the source.

What was measured:
[1] = molecular target: T1, G12V-mutant human KRAS (amino acid residues 1-188) (Homo sapiens, UniProt P01116, G12V); experiment: KRAS Binding Competition Assay (AlphaScreen; biotinylated KRpep-2d analogue), G12V; conditions: geometric mean, read-out: KRAS GMean IC50 (uM) MUTATION: G12V
T1 construct: G12V-mutant human KRAS (amino acid residues 1-188) with FLAG tag was purified from E. coli; made in house; host or cells: E. coli

[2] = molecular target: T2, G12D-mutant human KRAS (amino acid residues 1-188) (Homo sapiens, UniProt P01116, G12D); experiment: KRAS Binding Disruption Assay (AlphaScreen; biotinylated KRpep-2d analogue or RAF1-RBD), G12D; conditions: for IC50: geometric mean, read-out: KRAS GMean IC50 (uM) MUTATION: G12D
T2 construct: G12D or G12C-mutant human KRAS (amino acid residues 1-188) with FLAG tag; made in house; host or cells: E. coli
Procedure, shortened: (§1)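 Compounds are titrated against 5-20 nM mutant KRAS and 5-20 nM of either a biotinylated KRpep-2d analogue or RAF1-RBD, incubated 1 h at 25° C. Disruption is detected as reduced Alpha signal after 1 h with donor and acceptor beads at 10 μg/mL.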

[3] = molecular target: T3, G12C-mutant human KRAS (amino acid residues 1-188) (Homo sapiens, UniProt P01116, G12C); experiment: KRAS Binding Disruption Assay (AlphaScreen; biotinylated KRpep-2d analogue or RAF1-RBD), G12C; conditions: geometric mean, read-out: KRAS GMean IC50 (uM) MUTATION: G12C
T3 construct: G12D or G12C-mutant human KRAS (amino acid residues 1-188) with FLAG tag; made in house; host or cells: E. coli
Procedure, shortened: as §1

Compound	IC50 [1] [µM]	IC50 ([2]; KRAS G12D) [µM]	IC50 [3] [µM]	Improved KRAS G12D Biochemical Potency of Compounds with Bridged vs Non-Bridged R^1 Groups ([2]; Table 3, fold more potent than non-bridged version at the R1 variable)	IC50 ([2]; Table 3, bridged vs non-bridged R1) [µM]
CN1CCC[C@H]1COc1nc(N2C[C@H]3CC[C@@H](C2)N3)c2cc(Cl)c(-c3c(O)cccc3F)c(F)c2n1 [P-0027, 2-(4-((1R,5S)-3,8-diazabicyclo[3.2.1]octan-3-yl)-6-chloro-8-fluoro-2-(((S)-1-methylpyrrolidin-2-yl)methoxy)quinazolin-7-yl)-3-fluorophenol]	10 to 100	0.0001 to 10	10 to 100	P-0027 is about 392 times more potent than its non- bridged version at the R^1 variable.	0.038
NCC(=O)N1[C@@H]2CC[C@H]1CN(c1nc(OCC34CCCN3CCC4)nc3cc(-c4cc(O)cc5ccccc45)ccc13)C2 [P-0007, 2-amino-1-((1R,5S)-3-(7-(3-hydroxynaphthalen-1-yl)-2-((tetrahydro-1H-pyrrolizin-7a(5H)-yl)methoxy)quinazolin-4-yl)-3,8-diazabicyclo[3.2.1]octan-8-yl)ethan-1-one]	0.0001 to 10	0.0001 to 10	0.0001 to 10		
Cc1cccc2cccc(-c3ccc4c(N5C[C@H]6CC[C@@H](C5)N6)nc(OCC56CCCN5CCC6)nc4c3F)c12 [P-0005, 4-((1R,5S)-3,8-diazabicyclo[3.2.1]octan-3-yl)-8-fluoro-7-(8-methylnaphthalen-1-yl)-2-((tetrahydro-1H-pyrrolizin-7a(5H)-yl)methoxy)quinazoline]	10 to 100	0.0001 to 10	0.0001 to 10		
N#CC1(CC(=O)N2[C@@H]3CC[C@H]2CN(c2nc(OCC45CCCN4CCC5)nc4c(F)c(-c5cc(O)cc6ccccc56)ccc24)C3)CC1 [P-0409, 1-(2-((1R,5S)-3-(8-fluoro-7-(3-hydroxynaphthalen-1-yl)-2-((tetrahydro-1H-pyrrolizin-7a(5H)-yl)methoxy)quinazolin-4-yl)-3,8-diazabicyclo[3.2.1]octan-8-yl)-2-oxoethyl)cyclopropane-1-carbonitrile]	0.0001 to 10	0.0001 to 10	0.0001 to 10		
O=C(CC1CCNC1)N1[C@@H]2CC[C@H]1CN(c1nc(OCC34CCCN3CCC4)nc3cc(-c4cc(O)cc5ccccc45)ccc13)C2 (stereo partly drawn) [P-0110, 1-((1R,5S)-3-(7-(3-hydroxynaphthalen-1-yl)-2-((tetrahydro-1H-pyrrolizin-7a(5H)-yl)methoxy)quinazolin-4-yl)-3,8-diazabicyclo[3.2.1]octan-8-yl)-2-(pyrrolidin-3-yl)ethan-1-one]	0.0001 to 10	0.0001 to 10	0.0001 to 10		
C=CC(=O)N1[C@@H]2CC[C@H]1CN(c1nc(OC[C@@]34CCCN3C[C@H](F)C4)nc3c(F)c(-c4cc(O)cc5cccc(Cl)c45)ccc13)C2 [P-0502, 1-((1R,5S)-3-(7-(8-chloro-3-hydroxynaphthalen-1-yl)-8-fluoro-2-(((2R,7aS)-2-fluorotetrahydro-1H-pyrrolizin-7a(5H)-yl)methoxy)quinazolin-4-yl)-3,8-diazabicyclo[3.2.1]octan-8-yl)prop-2-en-1-one]	0.0001 to 10	0.0001 to 10	0.0001 to 10		
O=C(c1ccccn1)N1[C@@H]2CC[C@H]1CN(c1nc(OCC34CCCN3CCC4)nc3cc(-c4cc(O)cc5ccccc45)ccc13)C2 [P-0065, ((1R,5S)-3-(7-(3-hydroxynaphthalen-1-yl)-2-((tetrahydro-1H-pyrrolizin-7a(5H)-yl)methoxy)quinazolin-4-yl)-3,8-diazabicyclo[3.2.1]octan-8-yl)(pyridin-2-yl)methanone]	0.0001 to 10	10 to 100	0.0001 to 10		
O=C(CCCn1ccnc1)N1[C@@H]2CC[C@H]1CN(c1nc(OCC34CCCN3CCC4)nc3c(F)c(-c4cc(O)cc5ccccc45)ccc13)C2 [P-0351, 1-((1R,5S)-3-(8-fluoro-7-(3-hydroxynaphthalen-1-yl)-2-((tetrahydro-1H-pyrrolizin-7a(5H)-yl)methoxy)quinazolin-4-yl)-3,8-diazabicyclo[3.2.1]octan-8-yl)-4-(1H-imidazol-1-yl)butan-1-one]	0.0001 to 10	0.0001 to 10	0.0001 to 10		
O=C1NC(=O)C(CC(=O)N2[C@@H]3CC[C@H]2CN(c2nc(OCC45CCCN4CCC5)nc4c(F)c(-c5cc(O)cc6ccccc56)ccc24)C3)S1 (stereo partly drawn) [P-0299, 5-(2-((1R,5S)-3-(8-fluoro-7-(3-hydroxynaphthalen-1-yl)-2-((tetrahydro-1H-pyrrolizin-7a(5H)-yl)methoxy)quinazolin-4-yl)-3,8-diazabicyclo[3.2.1]octan-8-yl)-2-oxoethyl)thiazolidine-2,4-dione]	0.0001 to 10	0.0001 to 10	0.0001 to 10		
O=C(NC1CCNCC1)N1[C@@H]2CC[C@H]1CN(c1nc(OCC34CCCN3CCC4)nc3cc(-c4cc(O)cc5ccccc45)ccc13)C2 [P-0134, (1R,5S)-3-(7-(3-hydroxynaphthalen-1-yl)-2-((tetrahydro-1H-pyrrolizin-7a(5H)-yl)methoxy)quinazolin-4-yl)-N-(piperidin-4-yl)-3,8-diazabicyclo[3.2.1]octane-8-carboxamide]	0.0001 to 10	0.0001 to 10	0.0001 to 10		
O=C1N[C@@H](CC(=O)N2[C@@H]3CC[C@H]2CN(c2nc(OCC45CCCN4CCC5)nc4c(F)c(-c5cc(O)cc6ccccc56)ccc24)C3)CO1 [P-0414, (S)-4-(2-((1R,5S)-3-(8-fluoro-7-(3-hydroxynaphthalen-1-yl)-2-((tetrahydro-1H-pyrrolizin-7a(5H)-yl)methoxy)quinazolin-4-yl)-3,8-diazabicyclo[3.2.1]octan-8-yl)-2-oxoethyl)oxazolidin-2-one]	0.0001 to 10	0.0001 to 10	0.0001 to 10		
CN1CCC[C@H]1COc1nc(N2C[C@H]3CC[C@@H](C2)N3C(=O)CN2CCCC2)c2ccc(-c3cc(O)cc4ccccc34)cc2n1 [P-0118, 1-((1R,5S)-3-(7-(3-hydroxynaphthalen-1-yl)-2-(((S)-1-methylpyrrolidin-2-yl)methoxy)quinazolin-4-yl)-3,8-diazabicyclo[3.2.1]octan-8-yl)-2-(pyrrolidin-1-yl)ethan-1-one]	10 to 100	0.0001 to 10	0.0001 to 10		

Now from value to compound, other results behind:

IC50 [1] [µM]	IC50 ([2]; KRAS G12D) [µM]	IC50 [3] [µM]	Compound	Improved KRAS G12D Biochemical Potency of Compounds with Bridged vs Non-Bridged R^1 Groups ([2]; Table 3, fold more potent than non-bridged version at the R1 variable)	IC50 ([2]; Table 3, bridged vs non-bridged R1) [µM]
0.0001 to 10	0.0001 to 10	0.0001 to 10	O=C(N[C@H]1CC[C@H](O)C1)N1[C@@H]2CC[C@H]1CN(c1nc(OCC34CCCN3CCC4)nc3cc(-c4cc(O)cc5ccccc45)ccc13)C2 [P-0131, (1R,5S)-N-((1S,3S)-3-hydroxycyclopentyl)-3-(7-(3-hydroxynaphthalen-1-yl)-2-((tetrahydro-1H-pyrrolizin-7a(5H)-yl)methoxy)quinazolin-4-yl)-3,8-diazabicyclo[3.2.1]octane-8-carboxamide]		
0.0001 to 10	0.0001 to 10	0.0001 to 10	CN1CC[C@@H](NC(=O)N2[C@@H]3CC[C@H]2CN(c2nc(OCC45CCCN4CCC5)nc4cc(-c5cc(O)cc6ccccc56)ccc24)C3)C1 [P-0133, (1R,5S)-3-(7-(3-hydroxynaphthalen-1-yl)-2-((tetrahydro-1H-pyrrolizin-7a(5H)-yl)methoxy)quinazolin-4-yl)-N-((R)-1-methylpyrrolidin-3-yl)-3,8-diazabicyclo[3.2.1]octane-8-carboxamide]		
0.0001 to 10	0.0001 to 10	0.0001 to 10	CN1CC[C@@H](NC(=O)N2[C@@H]3CC[C@H]2CN(c2nc(OCC45CCCN4CCC5)nc4c(F)c(-c5cc(O)cc6ccccc56)ccc24)C3)C1 [P-0186, (1R,5S)-3-(8-fluoro-7-(3-hydroxynaphthalen-1-yl)-2-((tetrahydro-1H-pyrrolizin-7a(5H)-yl)methoxy)quinazolin-4-yl)-N-((R)-1-methylpyrrolidin-3-yl)-3,8-diazabicyclo[3.2.1]octane-8-carboxamide]		
0.0001 to 10	0.0001 to 10	0.0001 to 10	CN1CCC[C@H]1COc1nc(N2C[C@H]3CC[C@@H](C2)N3)c2cc(CO)c(-c3cc(O)cc4ccccc34)c(F)c2n1 [P-0056, 4-[4-(3,8-diazabicyclo[3.2.1]octan-3-yl)-8-fluoro-6-(hydroxymethyl)-2-[[(2S)-1-methylpyrrolidin-2-yl]methoxy]quinazolin-7-yl]naphthalen-2-ol]		
0.0001 to 10	0.0001 to 10	0.0001 to 10	CN1CCC[C@H]1COc1nc(N2CC3CCC2CN3C(=O)CC2SC(=O)NC2=O)c2ccc(-c3cc(O)cc4ccccc34)c(F)c2n1 (stereo partly drawn) [P-0328, 5-(2-(5-(8-fluoro-7-(3-hydroxynaphthalen-1-yl)-2-(((S)-1-methylpyrrolidin-2-yl)methoxy)quinazolin-4-yl)-2,5-diazabicyclo[2.2.2]octan-2-yl)-2-oxoethyl)thiazolidine-2,4-dione]		
0.0001 to 10	0.0001 to 10	0.0001 to 10	Oc1cc(-c2ccc3c(N4C[C@H]5CC[C@@H](C4)N5)nc(OCC45CCCN4CCC5)nc3c2)c2ccccc2c1 [P-0002, 4-(4-((1R,5S)-3,8-diazabicyclo[3.2.1]octan-3-yl)-2-((tetrahydro-1H-pyrrolizin-7a(5H)-yl)methoxy)quinazolin-7-yl)naphthalen-2-ol]		
0.0001 to 10	0.0001 to 10	0.0001 to 10	NCC(O)CC(=O)N1[C@@H]2CC[C@H]1CN(c1nc(OCC34CCCN3CCC4)nc3cc(-c4cc(O)cc5ccccc45)ccc13)C2 (stereo partly drawn) [P-0100, 4-amino-3-hydroxy-1-((1R,5S)-3-(7-(3-hydroxynaphthalen-1-yl)-2-((tetrahydro-1H-pyrrolizin-7a(5H)-yl)methoxy)quinazolin-4-yl)-3,8-diazabicyclo[3.2.1]octan-8-yl)butan-1-one]		
